The results in this text go back to ChEMBL document CHEMBL6127012, “Discovery of DS-1093a: An oral hypoxia-inducible factor prolyl hydroxylase inhibitor for the treatment of renal anemia” (Bioorg Med Chem Lett, 2024).

A short description of one data set: cells. The following applies: Homo sapiens, Hep3B.
A further data set relates to Cynomolgus monkey. Description: Anti-leukemia activity in cynomolgus monkey assessed as dose required to cause 10 fold increase in plasma EPO level.
A short description of data set [1]: Partition coefficient, Kp of compound in rat liver to plasma. It counts as ADME, cell-free. The following applies: liver and plasma.
A short description of data set [2]: AUC (0 to 24 hrs) in rat at 10 mg/kg, po measured on day 4. It counts as ADME, organism-based. Particulars: in vivo, time 4 day.
Data set [3] can be described thus: AUC (0 to 24 hrs) in rat at 100 mg/kg, po measured on day 4. It counts as ADME, organism-based. Particulars: in vivo, time 4 day.
A short description of data set [4]: Toxicity in rat assessed as increase in AST level […] at 10 mg/kg, po measured on day 4 (reference value: 71 IU/L). It counts as organism-based. The following applies: in vivo, 96 h, time 4 day.
Data set [5] can be described thus: Toxicity in rat assessed as increase in ALT level […] at 100 mg/kg, po measured on day 4 (reference value: 38 IU/L). It counts as organism-based. Particulars: in vivo, 96 h, time 4 day.
Data set [6] can be described thus: Toxicity in rat assessed as increase in AST level […] at 100 mg/kg, po measured on day 4 (reference value: 71 IU/L). It counts as organism-based. The following applies: in vivo, 96 h, time 4 day.
The nature of data set [7]: Toxicity in rat assessed as increase in ALT level […] at 10 mg/kg, po measured on day 4 (reference value: 38 IU/L). It counts as organism-based. Particulars: in vivo, 96 h, time 4 day.
A further data set deals with Egl nine homolog 1 (Homo sapiens, UniProt Q9GZT9).
Data set [8] in a line: Metabolic stability in rat plasma assessed as parent compound remaining. It counts as ADME, cell-free.
Data set [9] can be described thus: AUC (0 to 24 hrs) in rat at 0.54 mg/kg, po measured for 14 days. The following applies: in vivo, time 14 day. It counts as ADME, organism-based.
Data set [10] in a line: Cmax in rat at 3 mg/kg, po measured on day 4. It counts as ADME, organism-based. The following applies: in vivo, time 4 day.
Data set [11] in a line: Plasma protein binding in rat assessed as free fraction. It counts as ADME, cell-free.
The nature of data set [12]: Lipophilicity, logD of the compound. It counts as physicochemical. The following applies: octanol/water.
The nature of data set [13]: AUC (0 to 24 hrs) in rat at 10 mg/kg, po measured for 14 days. It counts as ADME, organism-based. Particulars: in vivo, time 14 day.
The next data set concerns Rattus norvegicus. Briefly: Hematopoietic effect on adenine-induced renal anemia po dosed rat model assessed as increase in hemoglobin level administered for 4 days and measured on day 5,7,9,11 and 14. It counts as functional, organism-based. The following applies: dose 0.3-3 mg/kg, time 4.0 day.
Data set [14] is described as follows: Toxicity in rat assessed as NOAEL at 10 mg/kg, po measured for 14 days. The following applies: in vivo, 336 h, time 14 day. It counts as organism-based.
Data set [15] can be described thus: Half life in rat at 3 mg/kg, po measured on day 4. It counts as ADME, organism-based. Particulars: in vivo, time 4 day.
Data set [16] in a line: AUC in rat at 3 mg/kg, po measured on day 4. It counts as ADME, organism-based. The following applies: in vivo, time 4 day.

Sequence of Egl nine homolog 1 (Q9GZT9 whole entry): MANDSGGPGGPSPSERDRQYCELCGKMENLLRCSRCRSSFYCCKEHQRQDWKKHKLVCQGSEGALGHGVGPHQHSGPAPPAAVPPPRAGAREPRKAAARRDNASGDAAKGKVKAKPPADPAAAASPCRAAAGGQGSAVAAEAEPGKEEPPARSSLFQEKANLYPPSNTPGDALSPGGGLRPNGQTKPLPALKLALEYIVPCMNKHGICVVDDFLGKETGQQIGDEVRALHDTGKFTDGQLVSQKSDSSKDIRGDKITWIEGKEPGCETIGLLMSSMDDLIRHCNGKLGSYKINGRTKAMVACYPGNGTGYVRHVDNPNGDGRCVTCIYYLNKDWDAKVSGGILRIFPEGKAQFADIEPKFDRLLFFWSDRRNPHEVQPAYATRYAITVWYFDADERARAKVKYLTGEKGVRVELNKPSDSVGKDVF
Description for Egl nine homolog 1: Inhibition of HIF-PHD2 (unknown origin)
Description for cells: Induction of EPO production in human Hep3B cells

For `Cc1nc(CC2CCN(c3ccc(Cc4ccc(CO)cc4)cc3)CC2)nc(C(=O)NCC(=O)O)c1O`, the 50% effective concentration (EC50) in “cells” was found to be 2.7 µM.
On the same count and under the same terms, under `Cc1nc(CC2CCN(c3ccc(-c4ccc(CO)cc4)cc3)CC2)nc(C(=O)NCC(=O)O)c1O` stands 0.47 µM; under `Cc1nc(CC2CCN(c3ccc(F)cc3)CC2)nc(C(=O)NCC(=O)O)c1O`, 9.9 µM.
Still for that read-out and setting: then `CC(C)(C)c1ccc(N2CCC(Cc3nc(C(=O)NCC(=O)O)c(O)c(C(F)F)n3)CC2)cc1`, with 19 µM; and `CCc1nc(Cc2ccc(-c3ccccc3)cc2)nc(C(=O)NCC(=O)O)c1O`, with 16 µM.
As for `Cc1nc(Cc2ccc(-c3ccccc3)cc2)nc(C(=O)NCC(=O)O)c1O`, a half-maximal effect in “cells” (EC50) was put at 8.4 µM. For the same compound, the EC10 in the data set with Cynomolgus monkey was 2.2 mg/kg.
Regarding `Cc1nc(Cc2ccc(-c3ccccc3)cc2)nc(C(=O)N[C@@H](C)C(=O)O)c1O`, the EC50 in the data set “cells” was found to be 14 µM.
The same measure, in the same setting: then `Cc1nc(CC2CCN(c3cccc(C(C)(C)C)c3)CC2)nc(C(=O)NCC(=O)O)c1O`, with 6.3 µM.
`Cc1nc(CC2CCN(c3ccc(-c4ccccc4)cc3)CC2)nc(C(=O)NCC(=O)O)c1O`: the midpoint of the response in “cells”, the EC50, lay at 0.42 µM. In the data set on Cynomolgus monkey, the EC10 is 1.1 mg/kg.
The compound `Cc1nc(Cc2cnc(-c3ccc(C(C)(C)C)cc3)nc2)nc(C(=O)NCC(=O)O)c1O` had an EC50 in “cells” of 1.9 µM.
On the same count and under the same terms, then `Cc1nc(CC2CCN(c3ccc(-c4ccc(C(C)(C)CO)cc4)cc3)CC2)nc(C(=O)NCC(=O)O)c1O`, with 0.84 µM; and `Cc1nc(CC2CCN(c3ccc(Cl)cc3)CC2)nc(C(=O)NCC(=O)O)c1O`, with 6.9 µM.
As to `Cc1nc(CC2CCN(c3ccc(C(C)(C)C)cc3)C2)nc(C(=O)NCC(=O)O)c1O` (stereo not given), it took 27 µM to reach a half-maximal effect in “cells” (EC50).
In “cells”, `Cc1nc(CC2CCCN(c3ccc(C(C)(C)C)cc3)CC2)nc(C(=O)NCC(=O)O)c1O` (stereo not given) gave a concentration giving a half-maximal response (EC50) of 19 µM.
Same read-out and setting: then `Cc1nc(CC2CCN(c3ccc(Cc4ccc(C(=O)N(C)C)cc4)cc3)CC2)nc(C(=O)NCC(=O)O)c1O`, with 5.8 µM; and `Cc1nc(CCCC2CCN(c3ccc(C(C)(C)C)cc3)CC2)nc(C(=O)NCC(=O)O)c1O`, with 11 µM.
In “cells”, `Cc1nc(CC2CCN(c3ccc(Cc4ccccc4)cc3)CC2)nc(C(=O)NCC(=O)O)c1O` displayed an EC50 of 0.99 µM. In the data set with Cynomolgus monkey, the EC10 amounted to 0.5 mg/kg. Besides, the concentration ratio (Kp) in [1] amounted to 9.6.
With `CCCCc1ccc(N2CCC(Cc3nc(C)c(O)c(C(=O)NCC(=O)O)n3)CC2)cc1`, in “cells”, the midpoint of the response, the EC50, lay at 1.6 µM.
The same measure, in the same setting: under `Cc1nc(CC2CCN(c3ccc(Cc4ccc(C(C)(C)CO)cc4)cc3)CC2)nc(C(=O)NCC(=O)O)c1O` stands 3.2 µM.
As to `Cc1nc(CC2CCN(c3ccc(-c4ccc(C[C@@H](C)O)cc4)cc3)CC2)nc(C(=O)NCC(=O)O)c1O`, the AUC at 96 h in data set [2] worked out at 15500 ng·h/mL; in [3], 197 µg·h/mL. The Activity was 77 IU/L in [4], 54 IU/L in data set [5], 103 IU/L in [6] and 40 IU/L in data set [7]. The same compound had an EC50 in “cells” of 0.44 µM. Besides, the EC10 in the data set on Cynomolgus monkey came to 2.4 mg/kg.
With `Cc1nc(CC2CCN(c3ccc(C(C)(C)C)cc3)CC2)nc(C(=O)NCC(=O)O)c1O`, in “cells”, the EC50 was 1.5 µM.
As to `Cc1nc(Cc2ccc(-c3ccccc3)cc2)nc(C(=O)NCC(=O)O)c1C`, the half-maximal inhibitory concentration (IC50) on Egl nine homolog 1 was over 100 µM.
The compound `Cc1nc(CC2CCN(c3ccc(C(F)(F)F)cc3)CC2)nc(C(=O)NCC(=O)O)c1O` had a concentration giving a half-maximal response (EC50) in “cells” of 5.5 µM.
Still for that read-out and setting: then `Cc1nc(Cc2cnc(-c3ccc(C(C)(C)C)cc3)s2)nc(C(=O)NCC(=O)O)c1O`, with 3.1 µM.
The same measure, in the same setting: then `Cc1nc(Cc2ccc(-c3ccc(C(C)(C)C)cc3)cn2)nc(C(=O)NCC(=O)O)c1O`, with 1.9 µM.
The same measure, in the same setting: under `CCCc1ccc(N2CCC(Cc3nc(C)c(O)c(C(=O)NCC(=O)O)n3)CC2)cc1` stands 1.6 µM.
`Cc1nc(CCC2CCN(c3ccc(C(C)(C)C)cc3)CC2)nc(C(=O)NCC(=O)O)c1O` registered an EC50 in the data set “cells” of 13 µM.
On the same count and under the same terms, then `CSc1nc(CC2CCN(c3ccc(C(C)(C)C)cc3)CC2)nc(C(=O)NCC(=O)O)c1O`, with 3 µM; and `Cc1nc(CC2CCN(c3ccc(-c4ccc(C(=O)N(C)C)cc4)cc3)CC2)nc(C(=O)NCC(=O)O)c1O`, with 0.84 µM; and `Cc1nc(CC2CCN(c3cccc(Cc4ccccc4)c3)CC2)nc(C(=O)NCC(=O)O)c1O`, with 3.9 µM.
On to `Cc1nc(CC2CCN(c3ccc(-c4ccc(C[C@H](C)O)cc4)cc3)CC2)nc(C(=O)NCC(=O)O)c1O`, for which the results for the area under the curve (AUC) at 96 h in [2], in data set [3] and in [16] were 16200 ng·h/mL, 162 µg·h/mL and 4320 ng·h/mL, respectively. The Stability in data set [8] stood at 79%. The values for the AUC at 336 h in data set [9] and in [13] were 600 ng·h/mL and 88500 ng·h/mL, respectively. In addition, in data set [10], the Cmax came out at 860 ng/mL. Moreover, the Fu in data set [11] amounted to 0.73%. For the same compound, the Activity in [4] was 79 IU/L; in the data set on Rattus norvegicus, “Dose-Dependent Effect”; in data set [5], 52 IU/L; in [14] it was “Non-Toxic”; in data set [6], 97 IU/L; in [7] it was 40 IU/L. For the same compound, the log distribution coefficient (logD) in data set [12] was 1.2. The compound also showed a 50% effective concentration (EC50) in “cells” of 0.49 µM. Besides, in the data set with Cynomolgus monkey, the EC10 was determined as 3.5 mg/kg. Also, the half-life in data set [15] is 60 min.
For the compound `Cc1nc(Cc2ccc(-c3ccc(C(C)(C)C)cc3)nc2)nc(C(=O)NCC(=O)O)c1O`, in “cells”, the response was half-maximal at 1 µM (EC50).
On to `Cc1nc(CC2CCN(c3ccc(-c4ccc(CC(C)O)cc4)cc3)CC2)nc(C(=O)NCC(=O)O)c1O` (racemic), for which the midpoint of the response in the data set “cells”, the EC50, lay at 0.55 µM. In data set [1], this compound gave a Kp of 1.5.
Consider `Cc1ccc(N2CCC(Cc3nc(C)c(O)c(C(=O)NCC(=O)O)n3)CC2)cc1`, for which the EC50 in the data set “cells” is 10 µM.
Turning to `Cc1nc(CCCCC2CCN(c3ccc(C(C)(C)C)cc3)CC2)nc(C(=O)NCC(=O)O)c1O`, the 50% effective concentration (EC50) in “cells” is 11 µM.
Same read-out and setting: then `Cc1nc(CC2CCN(c3ccc(Cc4ccc(CC(C)O)cc4)cc3)CC2)nc(C(=O)NCC(=O)O)c1O` (stereo not given), with 2.1 µM.

What is called EC50 is the concentration giving half of the maximal effect. For orientation: Kp means tissue or fluid exposure divided by exposure in the circulation. A word on the AUC: it is the area under the concentration-time curve, a measure of exposure. For orientation: IC50 means the midpoint of a concentration-inhibition curve. A word on the Cmax: it is the highest concentration seen after dosing. For orientation: logD means lipophilicity at a set pH, counting ionised and neutral species. One may read the half-life as the time needed for the level to fall by half in the phase considered.
